Experimental data as given in ChEMBL document CHEMBL1201862, “PubChem BioAssay data set” (2004).
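Five concentrations, 48 hours, 96-well plates. The concentration for 50% growth inhibition is given as GI50.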 Calls of active or inactive are those of the source. Rule as the data show it: active = GI50 up to about 1.1 µM and inactive = higher.

What was measured:
Test in all cases: NCI-60 cell line screen, 48 h
IGROV-1 = test system: IGROV-1
RPMI-8226 = test system: RPMI-8226
Hs-578T = test system: Hs-578T
HT-29 = test system: HT-29
DU-145 = test system: DU-145
OVCAR-3 = test system: OVCAR-3
SW-620 = test system: SW-620
SF-295 = test system: SF-295
SK-OV-3 = test system: SK-OV-3
NCI-H23 = test system: NCI-H23
UACC-257 = test system: UACC-257
UO-31 = test system: UO-31
MOLT-4 = test system: MOLT-4
OVCAR-4 = test system: OVCAR-4
CAKI-1 = test system: CAKI-1
SK-MEL-2 = test system: SK-MEL-2
HCT-116 = test system: HCT-116
UACC-62 = test system: UACC-62
SF-539 = test system: SF-539

Measured: GI50

O=c1c2sc3nc(NCCN4CCCCC4)ncc3c2ncn1-c1ccccc1
inactive: IGROV-1 40 µM | RPMI-8226 80.4 µM | Hs-578T 36.4 µM | HT-29 30.5 µM | DU-145 > 100 µM | OVCAR-3 > 100 µM | SW-620 46.7 µM | SF-295 61.8 µM | SK-OV-3 > 100 µM | NCI-H23 > 100 µM | UACC-257 31.3 µM | UO-31 19.7 µM | MOLT-4 67.8 µM | OVCAR-4 > 100 µM | CAKI-1 33 µM | SK-MEL-2 34.2 µM | HCT-116 33.1 µM | UACC-62 82.2 µM

Nc1nc(O)c2nc3c(nc2n1)C(=O)N(c1ccc(C(=O)O)cc1)C3
inactive: IGROV-1 > 100 µM | RPMI-8226 > 100 µM | Hs-578T > 100 µM | HT-29 > 100 µM | DU-145 > 100 µM | SW-620 > 100 µM | SF-539 > 100 µM | SF-295 > 100 µM | SK-OV-3 > 100 µM | NCI-H23 > 100 µM | UACC-257 > 100 µM | UO-31 > 100 µM | OVCAR-4 > 100 µM | CAKI-1 > 100 µM | SK-MEL-2 > 100 µM | HCT-116 > 100 µM | UACC-62 > 100 µM

c1ccc(CC2(c3cc4ccccc4[nH]3)OCCO2)nc1
inactive: IGROV-1 1.95 µM | RPMI-8226 > 100 µM | Hs-578T 51.5 µM | HT-29 > 100 µM | DU-145 > 100 µM | OVCAR-3 90.6 µM | SW-620 > 100 µM | SF-539 > 100 µM | SF-295 58.1 µM | SK-OV-3 > 100 µM | NCI-H23 > 100 µM | UACC-257 > 100 µM | UO-31 > 100 µM | MOLT-4 61.1 µM | CAKI-1 > 100 µM | SK-MEL-2 > 100 µM | HCT-116 > 100 µM | UACC-62 > 100 µM

CCOC(=O)[C@H](CO)NC1=C(Cl)C(=O)c2c(O)ccc(O)c2C1=O
inactive: IGROV-1 > 10 µM | RPMI-8226 > 10 µM | Hs-578T > 10 µM | HT-29 5.33 µM | DU-145 > 10 µM | OVCAR-3 > 10 µM | SW-620 > 10 µM | SF-539 > 10 µM | SF-295 > 10 µM | SK-OV-3 > 10 µM | NCI-H23 > 10 µM | UACC-257 > 10 µM | MOLT-4 > 10 µM | OVCAR-4 > 10 µM | CAKI-1 > 10 µM | SK-MEL-2 > 10 µM | HCT-116 > 10 µM | UACC-62 > 10 µM

CCOC(=O)c1cc(-c2ccc(OC)c(OC)c2)c[nH]1
inactive: IGROV-1 > 10 µM | RPMI-8226 > 10 µM | Hs-578T > 10 µM | HT-29 > 10 µM | DU-145 > 10 µM | OVCAR-3 > 10 µM | SF-539 > 10 µM | SF-295 > 10 µM | SK-OV-3 > 10 µM | NCI-H23 > 10 µM | UACC-257 > 10 µM | UO-31 > 10 µM | MOLT-4 > 10 µM | OVCAR-4 > 10 µM | CAKI-1 > 10 µM | SK-MEL-2 > 10 µM | HCT-116 > 10 µM | UACC-62 > 10 µM

FC(F)(F)c1ccc(C2ON=C(c3ccccc3)N2C23CC4CC(CC(C4)C2)C3)cc1 (stereo unspecified)
inactive: IGROV-1 > 10 µM | RPMI-8226 > 10 µM | Hs-578T > 10 µM | HT-29 > 10 µM | DU-145 > 10 µM | OVCAR-3 > 10 µM | SW-620 > 10 µM | SF-539 > 10 µM | SF-295 > 10 µM | SK-OV-3 > 10 µM | NCI-H23 > 10 µM | UACC-257 > 10 µM | MOLT-4 > 10 µM | OVCAR-4 > 10 µM | CAKI-1 > 10 µM | SK-MEL-2 > 10 µM | HCT-116 > 10 µM | UACC-62 > 10 µM

CC(=O)OCC1OC(Nn2c(=O)[nH]c3ccccc3c2=O)C(OC(C)=O)C(OC(C)=O)C1OC(C)=O (stereo unspecified)
inactive: IGROV-1 > 100 µM | RPMI-8226 > 100 µM | Hs-578T > 100 µM | HT-29 > 100 µM | DU-145 > 100 µM | OVCAR-3 > 100 µM | SW-620 > 100 µM | SF-539 > 100 µM | SF-295 > 100 µM | SK-OV-3 > 100 µM | NCI-H23 > 100 µM | UACC-257 35.3 µM | UO-31 70.3 µM | MOLT-4 97.7 µM | CAKI-1 > 100 µM | SK-MEL-2 > 100 µM | HCT-116 > 100 µM | UACC-62 > 100 µM

CC(=O)OCCc1cc2ccccc2oc1=O
inactive: IGROV-1 > 100 µM | RPMI-8226 > 100 µM | Hs-578T > 100 µM | HT-29 > 100 µM | DU-145 > 100 µM | OVCAR-3 > 100 µM | SW-620 > 100 µM | SF-539 > 100 µM | SF-295 > 100 µM | NCI-H23 > 100 µM | UACC-257 > 100 µM | UO-31 > 100 µM | MOLT-4 > 100 µM | OVCAR-4 > 100 µM | CAKI-1 > 100 µM | SK-MEL-2 > 100 µM | HCT-116 > 100 µM | UACC-62 > 100 µM

CC1OC(OC2C(O)COC(OC3C(C)OC(OC4C(OC(=O)[C@]56CCC(C)(C)C[C@@H]5C5=CCC7[C@@]8(C)C[C@H](O)[C@H](OC9OC(CO)C(O)C(O)C9O)[C@@](C)(CO)[C@@H]8CC[C@@]7(C)[C@]5(C)CC6)OCC(O)C4O)C(O)C3OC3OCC(O)C(O)C3O)C2O)C(O)C(O)C1O (stereo partly specified)
inactive: RPMI-8226 39 µM | Hs-578T 40.9 µM | DU-145 18.4 µM | OVCAR-3 17.8 µM | SW-620 14.9 µM | SF-539 18.1 µM | SF-295 20.7 µM | SK-OV-3 18.6 µM | NCI-H23 20.8 µM | UACC-257 14.9 µM | UO-31 5.19 µM | MOLT-4 20.1 µM | OVCAR-4 20.1 µM | CAKI-1 10.7 µM | SK-MEL-2 21.4 µM | HCT-116 19.9 µM | UACC-62 22.3 µM

NC(CC1=CCC=CC1)C(=O)O (stereo unspecified)
inactive: IGROV-1 67.8 µM | RPMI-8226 9.2 µM | Hs-578T 50.6 µM | HT-29 61.9 µM | DU-145 > 100 µM | OVCAR-3 51.5 µM | SW-620 > 100 µM | SF-295 60.3 µM | SK-OV-3 98.2 µM | NCI-H23 > 100 µM | UACC-257 > 100 µM | UO-31 > 100 µM | MOLT-4 62.2 µM | OVCAR-4 > 100 µM | CAKI-1 > 100 µM | SK-MEL-2 53.7 µM | HCT-116 55.1 µM | UACC-62 > 100 µM

COc1cc2ccc1OCc1cccc(n1)COc1ccc(cc1OC)/C=N\CCNCC/N=C\2
inactive: IGROV-1 > 100 µM | RPMI-8226 > 100 µM | Hs-578T 35.4 µM | HT-29 > 100 µM | DU-145 > 100 µM | OVCAR-3 > 100 µM | SW-620 > 100 µM | SF-539 > 100 µM | SF-295 41.7 µM | SK-OV-3 63.4 µM | NCI-H23 > 100 µM | UACC-257 > 100 µM | UO-31 > 100 µM | MOLT-4 > 100 µM | OVCAR-4 > 100 µM | CAKI-1 > 100 µM | SK-MEL-2 > 100 µM | HCT-116 45.4 µM
